By IC50 is commonly meant the concentration that gives 50% inhibition.

The values that follow come from article PMC6838110 (Nature Communications, 2019).

Holding throughout (format): cell-based
The target of one assay is T1, mTOR (Homo sapiens, UniProt P42345).
T1 construct: mTOR (pAKT Ser473) in MDA-MB-468; endogenous in cells; host or cells: MDA-MB-468
The assay is described as follows: mTOR (pAKT Ser473) imaging assay in MDA-MB-468 cells. To be noted: geometric mean; Supplementary Table 1; read-out: Compound IC50 mTOR.

The next assay has as its target T2, ATR (Homo sapiens, UniProt Q13535).
T2 construct: ATR (pCHK1 Ser345) in HT29; endogenous in cells; host or cells: HT-29
Description: ATR (pCHK1 Ser345) imaging assay in 4NQO-treated HT29 cells. The note with it: geometric mean; Supplementary Table 1; read-out: Compound IC50 ATR. As to the method: HT-29 cells by an imaging-based assay. HT-29 cells were dispensed into 384-well Greiner plates (#781090) to give 6000 cells/well in a total volume of 40 µL cell media and incubated overnight. Test compounds and reference controls were dosed directly into the cell plates using a Labcyte Echo 555 acoustic dispenser. The cell plates were then incubated for 1 hour at 37°C before being dosed with 3 µM of 4NQO using a Labcyte Echo 555 acoustic dispenser. The cells were incubated for a further 1 h our and were then fixed by the addition of 20 µL 3.7% formaldehyde in PBS and incubated for 20 min utes at RT. The plates were subsequently washed on a Bioteck EL406 3x using PBS-T, and then permeabilized with the addition of 20 µL of 0.1% Triton X-100 in PBS for 10 minutes at RT. Following permeabilization, the plates were washed 3x with PBST and incubated with 20 µL of primary antibody (1:250 anti-Chk1 pSer345 in PBS-T) overnight at 4°C. The next day, the plates were washed 3x with PBS and incubated with 20 µL of secondary antibody (1:500 AlexaFluor 488 goat anti-rabbit IgG and 1:5000 Hoechst stock solution [10 mg/mL ] in antibody buffer) for 2 hours at RT. Following this final incubation, the plates were washed 3x with PBS, sealed with black plate seals and then read on a CellInsight imaging platform (Thermo Scientific) with 10x objective. A two -laser setup was used to analyse nuclear staining with Hoechst (405 nm) and secondary antibody staining of pChk1 (488 nm). […]

In another assay the target is T3, DNA-PKcs (Homo sapiens, UniProt P78527).
T3 construct: evaluated in A549 cells following IR by measuring DNA-PKcs autophosphorylation on Ser2056; endogenous in cells; host or cells: A549
Description: DNA-PKcs autophosphorylation (pSer2056) ELISA in IR-treated A549 cells. To be noted: geometric mean; Supplementary Table 1; read-out: Compound IC50 DNA-PKcs. Background: An ELISA detects its analyte on a solid surface through an enzyme-linked reagent.

The target in a further assay is PI3Kα (Homo sapiens, UniProt P42336). Description: PI3K isoform assay, pAKT Thr308 ELISA in BT474 cells. The note with it: geometric mean; Supplementary Table 1; read-out: Compound IC50 PI3K (first PI3K line). As to the method: (§1) BT474 (PI3Kα), MDA-MB-468 (PI3Kβ), RAW-264 (PI3Kγ) and JEKO-1 (PI3Kδ). Levels of phospho-AKT Thr308, a downstream target for PI3K, was used as a marker of PI3K […]
(§2) BT474 and MDA -MB-468 cells were seeded into 384-well plates
(§3) (5600 cells/well) and incubated overnight prior to compound treatment for 2 hours. […]
(§4) Compounds were added to […]
(§5) cells/plates using an Echo 555 Liquid Handler (LabCyte). BT474 and MDA -MB-468 cells were lysed in 25 µL lysis buffer (25 mM Tris-HCl, 3 mM EDTA, 3 mM EGTA, 50 mM NaF, 2 mM Na3VO4, 0.27 M sucrose, 10 mM β-glycerophosphate, 5 mM Na2P2O7, 0.5% Triton […]
(§6) X-100) for 30 minutes at RT. […]
(§7) Lysates were transferred onto ELISA plates pre-coated with anti-AKT antibody (Cell Signalling #7144) that had previously been blocked with 1% BSA in PBS-T and incubated overnight at 4°C. Plates were then incubated with mouse anti-phosphoAKT Thr308 (Cell Signalling Technology #7144) for 2 hours, followed by an anti-mouse HRP-conjugated antibody (Cell Signalling Technology #7144) for 2 hours. Plates were washed between antibody incubation steps with PBS-T. QuantaBlu substrate working solution […]
(§8) (ThermoScientific #15169) was added to each well according to the manufacturer’s instructions and stop solution was added 60 minutes later. Fluorescence was measured

Assay [1] concerns secondary pharmacology target. Description: Cellular selectivity across secondary pharmacology targets. To be noted: versus cellular DNA-PKcs.
The target in another assay is T4, ATM (Homo sapiens, UniProt Q13315).
T4 construct: ATM (pATM Ser1981) in HT29; endogenous in cells; host or cells: HT-29
Description: ATM pSer1981 imaging assay in irradiated HT29 cells. The note with it: geometric mean; Supplementary Table 1; read-out: Compound IC50 ATM. As to the method:
Following this final incubation, the plates were washed twice using PBS, s ealed with black plate seals and then read on a CellInsight™ imaging platform (Thermo Scientific) with 10x objective. A two-laser setup was used to analyse nuclear staining with Hoechst (405 nm) and secondary antibody staining of pATM (488 nm). […]

In the next assay the target is T5, PI3Kβ (Homo sapiens, UniProt P42338).
T5 construct: MDA-MB-468 (PI3Kβ); endogenous in cells; host or cells: MDA-MB-468
Description: PI3K isoform assay, pAKT Thr308 ELISA in MDA-MB-468 cells. To be noted: geometric mean; Supplementary Table 1; read-out: Compound IC50 PI3K (second PI3K line). How it is done: as §1, §2, §3, §4, §5, §6, §7, §8

The next assay addresses T6, PI3Kγ (Mus musculus, UniProt Q9JHG7).
T6 construct: RAW-264 (PI3Kγ); endogenous in cells; host or cells: RAW-264
The assay is described as follows: PI3K isoform assay, pAKT Thr308 ELISA in RAW-264 cells. The note with it: geometric mean; Supplementary Table 1; read-out: Compound IC50 PI3K (third PI3K line). How it is done: as §1
RAW-264 and JEKO-1 cells were seeded directly into 384-well plates containing compounds (1 x 10^5 cells/well) and incubated for 1 hour. Compounds were added to cells/plates using an Echo 555 Liquid Handler (LabCyte). […]
as §7, with “X-100) for 30 minutes at RT. To stimulate AKT phosphorylation, C5a (complement 5a) anaphylatoxin trifluoroacetate salt (20 nM; Bachem) was added to RAW-264 cells for 3 minutes and anti-human IgM (120 µg/mL; Stratech) was added to JEKO-1 cells for 10 minutes prior to cell lysis. RAW-264 and JEKO-1 cells were then lysed for 30 minutes at RT. Lysates” for “Lysates”
as §8

Another assay has as its target T7, PI3Kδ (Homo sapiens, UniProt O00329).
T7 construct: JEKO-1 (PI3Kδ) cells; endogenous in cells; host or cells: JEKO-1
The assay is described as follows: PI3K isoform assay, pAKT Thr308 ELISA in JEKO-1 cells. To be noted: geometric mean; Supplementary Table 1; read-out: Compound IC50 PI3K (fourth PI3K line). As to the method:
as §1
RAW-264 and JEKO-1 cells were seeded directly into 384-well plates containing compounds (1 x 10^5 cells/well) and incubated for 1 hour. Compounds were added to cells/plates using an Echo 555 Liquid Handler (LabCyte). BT474 and MDA -MB-468 cells were lysed in 25 µL lysis buffer (25 mM Tris-HCl, 3 mM EDTA, 3 mM EGTA, 50 mM NaF, 2 mM Na3VO4, 0.27 M sucrose, 10 mM β-glycerophosphate, 5 mM Na2P2O7, 0.5% Triton […]
as §6
3 minutes and anti-human IgM (120 µg/mL; Stratech) was added to JEKO-1 cells for 10 minutes prior to cell lysis. RAW-264 and JEKO-1 cells were then lysed for 30 minutes at RT. Lysates were transferred onto ELISA plates pre-coated with anti-AKT antibody (Cell Signalling #7144) that had previously been blocked with 1% BSA in PBS-T and incubated overnight at 4°C. Plates were then incubated with mouse anti-phosphoAKT Thr308 (Cell Signalling Technology #7144) for 2 hours, followed by an anti-mouse HRP-conjugated antibody (Cell Signalling Technology #7144) for 2 hours. […]
as §8

T4 sequence (Q13315 whole entry): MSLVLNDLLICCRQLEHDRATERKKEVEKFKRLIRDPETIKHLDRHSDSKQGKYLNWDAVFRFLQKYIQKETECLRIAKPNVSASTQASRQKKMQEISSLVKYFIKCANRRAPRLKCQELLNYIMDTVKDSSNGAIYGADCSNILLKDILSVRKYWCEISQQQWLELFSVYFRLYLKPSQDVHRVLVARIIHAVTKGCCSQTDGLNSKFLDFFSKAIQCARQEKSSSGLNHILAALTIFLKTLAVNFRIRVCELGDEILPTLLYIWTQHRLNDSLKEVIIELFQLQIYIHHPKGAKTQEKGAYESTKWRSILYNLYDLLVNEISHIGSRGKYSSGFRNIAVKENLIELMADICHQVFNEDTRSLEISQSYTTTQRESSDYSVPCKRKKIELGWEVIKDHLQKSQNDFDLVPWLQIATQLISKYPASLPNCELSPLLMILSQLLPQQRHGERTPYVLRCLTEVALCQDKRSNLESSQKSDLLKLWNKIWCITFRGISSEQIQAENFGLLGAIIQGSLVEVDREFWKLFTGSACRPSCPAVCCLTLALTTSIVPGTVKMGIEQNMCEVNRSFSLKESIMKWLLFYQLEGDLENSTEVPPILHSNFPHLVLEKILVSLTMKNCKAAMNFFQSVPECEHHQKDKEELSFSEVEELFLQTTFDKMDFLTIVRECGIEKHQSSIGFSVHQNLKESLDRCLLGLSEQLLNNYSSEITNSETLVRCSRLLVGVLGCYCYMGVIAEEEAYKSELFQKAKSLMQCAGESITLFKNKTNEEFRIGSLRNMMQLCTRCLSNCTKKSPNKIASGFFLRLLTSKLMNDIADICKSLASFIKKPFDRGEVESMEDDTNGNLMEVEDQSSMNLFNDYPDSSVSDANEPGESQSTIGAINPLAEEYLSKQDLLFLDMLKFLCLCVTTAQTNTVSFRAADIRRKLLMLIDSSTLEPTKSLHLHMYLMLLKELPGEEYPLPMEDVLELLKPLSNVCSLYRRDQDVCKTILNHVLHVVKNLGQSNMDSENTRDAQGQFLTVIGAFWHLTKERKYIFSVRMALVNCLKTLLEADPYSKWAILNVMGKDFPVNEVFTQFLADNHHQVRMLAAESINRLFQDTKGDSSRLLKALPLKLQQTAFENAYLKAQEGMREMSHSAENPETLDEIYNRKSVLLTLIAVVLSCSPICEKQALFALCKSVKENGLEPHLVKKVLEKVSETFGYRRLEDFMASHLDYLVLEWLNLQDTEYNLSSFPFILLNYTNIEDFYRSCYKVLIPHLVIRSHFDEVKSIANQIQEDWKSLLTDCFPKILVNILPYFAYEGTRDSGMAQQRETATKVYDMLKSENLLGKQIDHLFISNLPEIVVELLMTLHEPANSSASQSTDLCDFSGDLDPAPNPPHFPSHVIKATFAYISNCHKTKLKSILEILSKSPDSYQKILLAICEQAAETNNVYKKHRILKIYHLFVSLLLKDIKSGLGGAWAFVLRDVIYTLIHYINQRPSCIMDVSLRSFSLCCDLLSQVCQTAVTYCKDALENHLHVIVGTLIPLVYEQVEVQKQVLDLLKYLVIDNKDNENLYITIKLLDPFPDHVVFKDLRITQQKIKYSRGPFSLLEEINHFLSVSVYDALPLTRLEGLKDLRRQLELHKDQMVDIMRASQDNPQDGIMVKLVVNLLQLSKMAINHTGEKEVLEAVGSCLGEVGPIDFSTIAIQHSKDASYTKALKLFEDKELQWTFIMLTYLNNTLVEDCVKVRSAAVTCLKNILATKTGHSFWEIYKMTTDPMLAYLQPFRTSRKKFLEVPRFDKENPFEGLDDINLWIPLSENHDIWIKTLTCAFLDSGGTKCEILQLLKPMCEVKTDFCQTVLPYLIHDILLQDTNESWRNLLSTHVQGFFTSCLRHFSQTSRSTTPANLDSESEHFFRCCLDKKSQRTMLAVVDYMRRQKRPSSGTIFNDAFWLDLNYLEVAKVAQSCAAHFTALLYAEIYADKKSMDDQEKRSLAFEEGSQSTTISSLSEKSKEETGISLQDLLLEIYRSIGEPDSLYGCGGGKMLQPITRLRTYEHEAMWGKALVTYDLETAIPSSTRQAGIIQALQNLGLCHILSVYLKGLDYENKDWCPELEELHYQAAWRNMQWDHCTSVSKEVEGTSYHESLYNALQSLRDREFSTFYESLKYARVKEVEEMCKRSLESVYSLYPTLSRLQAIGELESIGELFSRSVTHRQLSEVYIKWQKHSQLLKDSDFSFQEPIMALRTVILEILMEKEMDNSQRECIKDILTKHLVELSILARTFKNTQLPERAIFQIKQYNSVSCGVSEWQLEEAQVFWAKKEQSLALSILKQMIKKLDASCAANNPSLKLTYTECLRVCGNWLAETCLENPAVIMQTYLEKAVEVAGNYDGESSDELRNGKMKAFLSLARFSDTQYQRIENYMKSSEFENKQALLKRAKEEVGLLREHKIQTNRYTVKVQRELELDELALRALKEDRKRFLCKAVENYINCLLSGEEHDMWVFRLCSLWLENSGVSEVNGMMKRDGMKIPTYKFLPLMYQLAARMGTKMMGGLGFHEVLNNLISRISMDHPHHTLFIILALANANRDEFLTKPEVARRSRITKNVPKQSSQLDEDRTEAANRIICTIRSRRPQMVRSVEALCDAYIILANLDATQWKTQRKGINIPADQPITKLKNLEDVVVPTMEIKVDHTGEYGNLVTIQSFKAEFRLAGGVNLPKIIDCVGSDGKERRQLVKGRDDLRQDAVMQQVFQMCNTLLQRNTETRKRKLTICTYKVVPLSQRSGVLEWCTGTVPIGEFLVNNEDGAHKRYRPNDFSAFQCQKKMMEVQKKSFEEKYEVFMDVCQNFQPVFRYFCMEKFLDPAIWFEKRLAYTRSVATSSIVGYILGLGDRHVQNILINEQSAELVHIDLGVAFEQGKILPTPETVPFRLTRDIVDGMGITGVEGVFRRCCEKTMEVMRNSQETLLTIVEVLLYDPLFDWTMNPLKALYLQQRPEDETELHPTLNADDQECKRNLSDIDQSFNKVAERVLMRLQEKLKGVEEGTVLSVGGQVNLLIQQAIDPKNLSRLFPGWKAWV
Sequence of PI3Kα (P42336 187-1068 limits assumed): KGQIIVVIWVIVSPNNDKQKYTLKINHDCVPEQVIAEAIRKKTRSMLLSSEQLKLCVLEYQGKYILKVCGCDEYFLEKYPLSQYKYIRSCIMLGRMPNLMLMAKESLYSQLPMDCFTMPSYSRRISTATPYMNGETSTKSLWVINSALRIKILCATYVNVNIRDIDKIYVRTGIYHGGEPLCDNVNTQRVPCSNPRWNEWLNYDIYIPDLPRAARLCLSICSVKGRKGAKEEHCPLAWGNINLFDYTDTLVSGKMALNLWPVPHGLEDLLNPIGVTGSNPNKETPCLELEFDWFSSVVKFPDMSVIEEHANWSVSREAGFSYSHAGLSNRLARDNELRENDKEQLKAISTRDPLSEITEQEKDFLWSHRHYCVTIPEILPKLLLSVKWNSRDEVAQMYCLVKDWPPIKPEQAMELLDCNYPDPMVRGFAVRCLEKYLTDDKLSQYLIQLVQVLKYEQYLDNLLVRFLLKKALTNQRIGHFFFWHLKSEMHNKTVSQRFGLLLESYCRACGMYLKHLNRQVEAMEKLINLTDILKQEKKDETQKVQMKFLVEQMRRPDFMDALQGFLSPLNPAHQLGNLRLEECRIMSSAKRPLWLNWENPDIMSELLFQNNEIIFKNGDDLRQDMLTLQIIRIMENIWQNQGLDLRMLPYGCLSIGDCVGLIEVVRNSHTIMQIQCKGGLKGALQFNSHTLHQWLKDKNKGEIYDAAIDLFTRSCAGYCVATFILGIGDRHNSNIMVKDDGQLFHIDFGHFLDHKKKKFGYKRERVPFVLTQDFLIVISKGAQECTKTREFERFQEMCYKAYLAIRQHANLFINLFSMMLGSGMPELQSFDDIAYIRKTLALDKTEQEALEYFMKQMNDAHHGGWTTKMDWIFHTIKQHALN
T6 sequence (Q9JHG7 whole entry): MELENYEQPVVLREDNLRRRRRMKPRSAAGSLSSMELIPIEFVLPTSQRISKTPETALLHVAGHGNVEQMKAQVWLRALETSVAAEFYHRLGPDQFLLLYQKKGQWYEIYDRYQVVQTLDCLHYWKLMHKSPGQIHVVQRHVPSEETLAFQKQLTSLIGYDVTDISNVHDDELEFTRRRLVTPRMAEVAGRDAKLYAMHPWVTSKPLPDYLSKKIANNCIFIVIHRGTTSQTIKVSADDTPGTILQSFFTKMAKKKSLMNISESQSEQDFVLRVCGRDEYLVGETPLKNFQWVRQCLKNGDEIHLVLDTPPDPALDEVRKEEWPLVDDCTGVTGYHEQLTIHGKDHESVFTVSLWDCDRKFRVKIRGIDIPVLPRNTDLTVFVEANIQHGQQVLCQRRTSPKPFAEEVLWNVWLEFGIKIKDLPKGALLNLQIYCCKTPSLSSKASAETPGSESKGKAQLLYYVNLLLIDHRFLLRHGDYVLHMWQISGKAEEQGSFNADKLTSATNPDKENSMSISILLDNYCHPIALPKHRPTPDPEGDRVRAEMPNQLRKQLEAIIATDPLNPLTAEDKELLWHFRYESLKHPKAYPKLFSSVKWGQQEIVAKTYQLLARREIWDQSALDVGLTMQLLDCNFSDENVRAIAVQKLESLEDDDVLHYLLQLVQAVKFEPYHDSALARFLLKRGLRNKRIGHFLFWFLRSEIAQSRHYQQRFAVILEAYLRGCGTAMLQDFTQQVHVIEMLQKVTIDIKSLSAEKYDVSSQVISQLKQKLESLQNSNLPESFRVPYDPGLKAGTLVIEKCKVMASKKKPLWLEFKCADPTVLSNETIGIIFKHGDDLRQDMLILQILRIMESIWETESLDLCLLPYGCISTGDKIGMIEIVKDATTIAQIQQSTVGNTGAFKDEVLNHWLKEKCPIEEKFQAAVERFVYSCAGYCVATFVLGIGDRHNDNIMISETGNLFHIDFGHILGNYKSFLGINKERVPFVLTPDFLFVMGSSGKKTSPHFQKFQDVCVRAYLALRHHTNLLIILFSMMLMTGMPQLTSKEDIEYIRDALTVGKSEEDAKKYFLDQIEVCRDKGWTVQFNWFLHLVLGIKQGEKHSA

Turning to `CCN1CCN(CC(=O)Nc2ccc(-c3cccc4c(=O)cc(N5CCOCC5)oc34)c3sc4ccccc4c23)CC1` [KU-0060648], the IC50 at mTOR is 0.15 µM; at ATR it was greater than 30 µM; on DNA-PKcs, 0.055 µM; at PI3Kα it was 0.2 µM; on ATM it was greater than 30 µM. Moreover, in [1], the “selectivity in at least one secondary pharmacology target” value is recorded as less than 10 fold.

Take `O=c1cc(N2CCOCC2)oc2c(-c3cccc4c3sc3ccccc34)cccc12` [NU7441]: the half-maximal inhibitory concentration (IC50) at mTOR is 1.8 µM; on ATR, greater than 30 µM; at DNA-PKcs it was 0.185 µM; at PI3Kα it was 7.8 µM; at ATM it was greater than 3.1 µM. For the same molecule, the “selectivity in at least one secondary pharmacology target” value in assay [1] is on record as less than 10 fold.

For the molecule `CNC(=O)c1ccnc2c([C@H](C)CNc3cc(-c4cnc(C)nc4)ncn3)cccc12` [M9831/VX-984], the IC50 on mTOR is greater than 30 µM; on ATR, greater than 30 µM; on DNA-PKcs it was 0.115 µM; on PI3Kβ, greater than 30 µM; on PI3Kα it was greater than 20 µM; on PI3Kγ it was 7.1 µM. The IC50 on PI3Kδ and on ATM was greater than 30 µM in each case.

Turning to `COc1ccc([C@@H](O)c2cc(-c3ncnc4cc(N5CCOCC5)ccc34)c(F)cc2Cl)nn1` [M3814], the results for the IC50 on ATR, on PI3Kγ and on ATM were greater than 30 µM, 1.59 µM and greater than 30 µM, respectively.
